According to patent US20190307728A1, “METHODS OF TREATMENT WITH A 2,4,5-TRISUBSTITUTED 1,2,4-TRIAZOLONE” (Bayer Pharma Aktiengesellschaft, priority 2018, published 2019):

Columns and labels:
Assay in all cases: Cell proliferation panel assay
Assay type in all cases: cell-based
CEM-C1 = conditions: 72 h; CEM-C1, Leukemia, 3-day incubation; read-out: Cell Count EC50
PANC-1 = conditions: Homo sapiens, 72 h, PANC-1, Pancreatic cancer, 3-day incubation
Experimental: (§1) Cells were grown in RPMI 1640, 10% FBS, 2 mM L-alanyl-L-glutamine, 1 mM Na pyruvate or a special medium. Cells were seeded into 384-well plates and incubated in a humidified atmosphere of 5% CO2 at 37° C. Compounds were added the day following cell seeding. At the same time, a time zero untreated cell plate was generated. After a 3-day incubation period, cells were fixed and stained to allow fluorescence imaging of nuclei.
(§2) Compounds were serially diluted in half-log steps from the highest test concentration 10 μM, and assayed over 10 concentrations with a maximum assay concentration of 0.1% DMSO. Automated fluorescence microscopy was carried out using a Molecular Devices ImageXpress Micro XL high-content imager, and images were collected with a 4× objective. 16-bit TIFF images were acquired and analyzed with MetaXpress 5.1.0.41 software.
(§3) Cell proliferation was measured by the fluorescence intensity of an incorporated nuclear dye. The output is referred to as the relative cell count, where the measured nuclear intensity is transformed to percent of control (POC) using the following formula: […]
(§4) Cellular response parameters were calculated using nonlinear regression to a sigmoidal single-site dose response model:
(§5) Where y is a response measured at concentration x, A and B are the lower and upper limits of the response, C is the concentration at the response midpoint (EC50), and D is the Hill Slope (Fallahi-Sichani, M., S. Honardejad, L. M. Heiser, J. W. Gray, and P. K. Sorger (2013). Metrics other than potency reveal systematic variation in responses to cancer drugs. Nat. Chem. Biol. 9: 708-714.).
(§6) Cell count IC50 is the test compound concentration at 50% of maximal possible response. EC50 is the test compound concentration at the curve inflection point or half the effective response (parameter C of the fitted curve solution).

A498 = conditions: Homo sapiens, 72 h, A498, Renal cell carcinoma, 3-day incubation
Experimental: as §1, §2, §3, §4, §5, §6

MEG01 = conditions: Homo sapiens, MEG-01, 72 h; MEG01, Leukemia, 3-day incubation; read-out: Cell Count EC50
MV-4-11 = conditions: Homo sapiens, MV4-11, 72 h; MV-4-11, Leukemia, 3-day incubation; read-out: Cell Count IC50
G-401 = conditions: Homo sapiens, 72 h; G-401, Kidney cancer, 3-day incubation; read-out: Cell Count IC50
Colo 320DM = conditions: Homo sapiens, 72 h, Colorectal carcinoma, 3-day incubation, read-out: Cell Count IC50
DMS114 = conditions: Homo sapiens, DMS-114, 72 h; DMS114, Lung cancer, 3-day incubation; read-out: Cell Count IC50
ARH-77 = conditions: Homo sapiens, 72 h; ARH-77, Leukemia, 3-day incubation; read-out: Cell Count EC50
CaOV3 = conditions: Homo sapiens, Caov-3, 72 h; CaOV3, Ovarian carcinoma, 3-day incubation; read-out: Cell Count IC50
Mia PaCa-2 = conditions: Homo sapiens, 72 h; Mia PaCa-2, Pancreatic cancer, 3-day incubation; read-out: Cell Count IC50
HT-29 = conditions: Homo sapiens, 72 h; HT-29, Colorectal carcinoma, 3-day incubation; read-out: Cell Count IC50
U266B1 = conditions: 72 h; U266B1, Multiple Myeloma, 3-day incubation; read-out: Cell Count IC50
MHH-PREB-1 = conditions: Homo sapiens, 72 h; MHH-PREB-1, Lymphoma, 3-day incubation; read-out: Cell Count IC50
SU.86.86 = conditions: Homo sapiens, 72 h; SU.86.86, Pancreatic cancer, 3-day incubation; read-out: Cell Count IC50

## CCn1c(CO)nn(-c2cc(O[C@@H](C)C(F)(F)F)c(C(=O)Nc3c(F)cccc3Cl)cc2F)c1=O [Example 1, N-(2-chloro-6-fluorophenyl)-4-[4-ethyl-3-(hydroxymethyl)-5-oxo-4,5-dihydro-1H-1,2,4-triazol-1-yl]-5-fluoro-2-{[(2S)-1,1,1-trifluoropropan-2-yl]oxy}benzamide]
CEM-C1
  EC50: 0.91 nM
PANC-1; read-out: Cell Count EC50
  EC50: 3.5 nM
PANC-1; read-out: Cell Count IC50
  IC50: > 10000 nM
A498; read-out: Cell Count EC50
  EC50: > 10000 nM
A498; read-out: Cell Count IC50
  IC50: > 10000 nM
MEG01
  EC50: 0.66 nM
MV-4-11
  IC50: 1.2 nM
G-401
  IC50: > 10000 nM
Colo 320DM
  IC50: 5.1 nM
DMS114
  IC50: > 10000 nM
ARH-77
  EC50: 0.92 nM
CaOV3
  IC50: > 10000 nM
Mia PaCa-2
  IC50: > 10000 nM
HT-29
  IC50: 11 nM
U266B1
  IC50: > 10000 nM
MHH-PREB-1
  IC50: 0.83 nM
SU.86.86
  IC50: > 10000 nM
